Series [1] has as its target T1, Cytochrome P450 1B1 (Homo sapiens, UniProt Q16678).
T1 sequence (Q16678 whole entry): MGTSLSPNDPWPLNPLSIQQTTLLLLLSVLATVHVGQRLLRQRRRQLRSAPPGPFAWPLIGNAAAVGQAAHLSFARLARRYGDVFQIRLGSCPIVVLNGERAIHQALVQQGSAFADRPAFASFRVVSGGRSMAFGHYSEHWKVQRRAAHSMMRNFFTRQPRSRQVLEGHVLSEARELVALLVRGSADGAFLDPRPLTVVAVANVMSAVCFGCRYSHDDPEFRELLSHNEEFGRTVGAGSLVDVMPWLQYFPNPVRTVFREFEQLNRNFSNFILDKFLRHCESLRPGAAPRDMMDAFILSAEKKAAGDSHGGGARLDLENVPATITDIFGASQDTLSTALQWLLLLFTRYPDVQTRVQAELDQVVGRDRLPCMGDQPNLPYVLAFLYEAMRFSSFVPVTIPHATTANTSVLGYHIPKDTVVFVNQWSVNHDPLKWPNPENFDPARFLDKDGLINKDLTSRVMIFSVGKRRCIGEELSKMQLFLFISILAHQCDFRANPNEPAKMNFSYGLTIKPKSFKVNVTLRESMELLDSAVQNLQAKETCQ
Nature of the series: Inhibition of CYP1B1 EROD activity assessed as inhibition of deethylation of 7-ethoxyresorufin to resorufin. The series is classed as ADME.

For series [2], the target named is T2, Cytochrome P450 1A1 (Homo sapiens, UniProt P04798).
T2 sequence (P04798 whole entry): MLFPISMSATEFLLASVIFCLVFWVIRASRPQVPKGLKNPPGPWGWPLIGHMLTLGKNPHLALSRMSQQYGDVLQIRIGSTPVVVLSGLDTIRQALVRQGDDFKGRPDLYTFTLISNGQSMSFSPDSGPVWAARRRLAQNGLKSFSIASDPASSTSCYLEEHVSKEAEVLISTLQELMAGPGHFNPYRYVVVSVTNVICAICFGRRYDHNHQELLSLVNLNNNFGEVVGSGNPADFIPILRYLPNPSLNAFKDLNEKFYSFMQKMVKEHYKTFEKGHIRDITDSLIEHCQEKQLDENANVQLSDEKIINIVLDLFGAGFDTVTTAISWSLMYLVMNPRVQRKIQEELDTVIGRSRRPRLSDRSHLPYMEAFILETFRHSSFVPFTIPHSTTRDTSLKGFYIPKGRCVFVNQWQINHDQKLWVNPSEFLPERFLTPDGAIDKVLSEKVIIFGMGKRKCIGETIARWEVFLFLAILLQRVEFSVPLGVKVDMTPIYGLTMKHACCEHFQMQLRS
In words: Inhibition of CYP1A1 EROD activity assessed as inhibition of deethylation of 7-ethoxyresorufin to resorufin. The series is classed as ADME.

The target of series [3] is T3, CYP1A1 (Homo sapiens, UniProt P04798).
T3 sequence (P04798 whole entry): T2 sequence (P04798 whole entry)
Nature of the series: Activity at CYP1A1 in recombinant human CYP1A1 microsomes assessed as parent compound remaining after 20 mins by HPLC analysis.

In series [4] the test system is MDA-MB-468. In words: Activation factor, ratio of IC50 for non-CYP1 expressing human MCF10A to IC50 for CYP1 expressing human MDA-MB-468 cells. The series is classed as functional.
Series [5] deals with T2, Cytochrome P450 1A1. Nature of the series: Activity at recombinant CYP1A1 assessed as AM1 metabolite production at 10 uM after 20 mins by HPLC analysis. The series is classed as ADME. The note with it: recombinant enzyme.
In series [6] the target is T2, Cytochrome P450 1A1. Nature of the series: Activity at recombinant CYP1A1 assessed as scutellarein production at 10 uM after 20 mins by HPLC analysis. The series is classed as ADME. The conditions noted are these: recombinant enzyme.
For series [7], the target named is T2, Cytochrome P450 1A1. In words: Activity at recombinant CYP1A1 assessed as AM1 metabolite retention time at 10 uM by HPLC analysis. The series is classed as ADME. The note with it: recombinant enzyme.
Series [8] has as its target T2, Cytochrome P450 1A1. Nature of the series: Activity at recombinant CYP1A1 assessed as luteolin production at 10 uM after 20 mins by HPLC analysis. The series is classed as ADME. The note with it: recombinant enzyme.
Series [9] addresses T2, Cytochrome P450 1A1. Nature of the series: Activity at recombinant CYP1A1 assessed as apigenin production at 10 uM after 20 mins by HPLC analysis. The series is classed as ADME. The conditions noted are these: recombinant enzyme.
The target of series [10] is T2, Cytochrome P450 1A1. In words: Activity at recombinant CYP1A1 assessed as E5M1 metabolite elution time at 10 uM by HPLC analysis. The series is classed as ADME. The conditions noted are these: recombinant enzyme.
Series [11] deals with Cytochrome P450 1B1 (Homo sapiens) (UniProt Q16678). In words: Activity at recombinant CYP1B1 assessed as E5M1 metabolite elution time at 10 uM by HPLC analysis. The conditions noted are these: recombinant enzyme.
In series [12] the test system is MDA-MB-468. Nature of the series: Anticancer activity against CYP1 expressing human MDA-MB-468 cells by MTT assay. The series is classed as functional, cell-based. For orientation: Formazan colour is commonly taken as a measure of viable cells.
In series [13] the test system is MCF-10A. Nature of the series: Anticancer activity against non-CYP1 expressing human MCF10A cells by MTT assay. The series is classed as functional, cell-based.

Activity calls are given as the source filed them. The rule behind the calls is not given here.

For `O=c1cc(-c2ccc(O)cc2)oc2cc(O)c(O)c(O)c12` [SCUTELLAREIN], the Ki – broadly, a measure of affinity in units of concentration, obtained from inhibition or displacement – in [1] stood at 0.22 µM; in series [2], 1.64 µM. Besides, the share remaining (usually what is left of the initial amount, in per cent) at 20 min in series [3] was 12.6%. Besides, the “Ratio IC50” value in series [4] stood at 3.3.
As to `COc1cc2oc(-c3ccc(O)c(O)c3)cc(=O)c2c(O)c1OC` [CIRSILIOL], the Ki in series [1] and in series [2] was above 0.8 µM each time. In addition, the amount remaining at 20 min in series [3] is 16.7%. For the same compound, the “Ratio IC50” value in series [4] was 8.
On to `COc1ccc(-c2cc(=O)c3c(O)cc(O)cc3o2)cc1` [ACACETIN], for which the result in series [5], in series [6], in series [8] and in series [9] was Active. Also, the share remaining at 20 min in [3] turned out to be 15.9%. In addition, the Time in series [7] is given as 11.3 min.
With `COc1cc(O)c2c(=O)cc(-c3ccc(O)cc3)oc2c1` [GENKWANIN], the inhibitory constant (Ki) in series [1] and in [2] was above 2.34 µM each time. In addition, the share remaining at 20 min in series [3] is 34%. For the same compound, the “Ratio IC50” value in series [4] amounted to 47.
In the case of `O=c1cc(-c2ccccc2)oc2cc(O)c(O)c(O)c12` [BAICALEIN], the results for the inhibitory constant (Ki) in series [1] and in series [2] were 0.26 µM and 1.22 µM, respectively. In [4], the “Ratio IC50” value was found to be 1.7.
In the case of `COc1ccc(-c2cc(=O)c3c(O)c(OC)c(OC)cc3o2)cc1O` [EUPATORIN], the Ki in series [1] turned out to be 0.035 µM; in series [2], 0.21 µM. The amount remaining at 20 min in [3] came out at 47.8%. Besides, in series [4], the “Ratio IC50” value is 100.
Regarding `COc1ccc(-c2cc(=O)c3c(OC)c(OC)c(OC)cc3o2)cc1OC` [SINENSETIN], the amount remaining at 20 min in series [3] turned out to be 68.9%. Also, the “Ratio IC50” value in series [4] is listed as 325.
In the case of `COc1ccc(-c2cc(=O)c3c(OC)c(OC)c(OC)cc3o2)cc1O`, the Ki in series [1] was determined as 0.67 µM; in series [2], 0.63 µM. The share remaining at 20 min in [3] was found to be 20.4%. In addition, the Time in [10] and in series [11] was 8.9 min each time. For the same compound, in series [4], the “Ratio IC50” value was 100. Further, in [12], the outcome was Active. Also, in series [13], the result was inactive.
In the case of `O=c1c(O)c(-c2cc(O)c(O)c(O)c2)oc2cc(O)cc(O)c12` [MYRICETIN], the figures for the inhibition constant Ki in [1] and in series [2] were 0.027 µM and 0.37 µM, respectively.
For `O=c1cc(-c2ccccc2)oc2cc(O)cc(O)c12` [CHRYSIN], the fraction remaining at 20 min in [3] was determined as 15.9%.
